Here are results for 13 compounds from ChEMBL document CHEMBL1201862, “PubChem BioAssay data set” (2004).

Structures are written as SMILES.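 Briefly, cells in 96-well plates were exposed to five compound concentrations for 48 h, and endpoints were estimated by linear interpolation. GI50 is the concentration that inhibits growth by half.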 Calls of active or inactive are those of the source. Cut-off read from the data, not from the text of the source: active = GI50 up to about 1.1 µM and inactive = higher. Bounds are passed on as bounds.

Some test systems named below: 786-0; KM12; LOX IMVI; NCI-H23; NCI-H522; OVCAR-8; SF-268; SK-MEL-28; SK-MEL-5; SNB-19; SNB-75; U-251; UACC-62; UO-31; DU-145; MCF7; MDA-MB-435; NCI/ADR-RES; PC-3; MDA-N.
What all share (assay): DTP human tumour cell line panel, 48 h

The GI50 is the concentration giving 50% growth inhibition. For `Cc1cc2c(=O)cc(-c3ccc(Cl)c(Cl)c3)oc2c(C(=O)O)c1C`, the GI50 in the experiment on 786-0, with KM12, in the experiment on LOX IMVI, with NCI-H23, with NCI-H522 and in the experiment on OVCAR-8 was > 100 µM (inactive) in each case. For the same compound, the GI50 was > 100 µM (inactive) in the experiment with SF-268; > 100 µM (inactive) in the experiment with SK-MEL-28; > 100 µM (inactive) in the experiment with SK-MEL-5; > 100 µM (inactive) in the experiment on SNB-19; 92.3 µM (inactive) with SNB-75; > 100 µM (inactive) with U-251. For the same compound, the GI50 in the experiment on UACC-62 and with UO-31 was > 100 µM (inactive) each time.

In the case of `Brc1ccc2nc(-c3cccs3)nc(N3CCN(c4ccccc4)CC3)c2c1`, the GI50 in the experiment on 786-0, in the experiment with DU-145, with KM12, in the experiment on LOX IMVI, in the experiment on MCF7 and with MDA-MB-435 was > 100 µM (inactive) each time. The GI50 in the experiment with NCI-H23, in the experiment on NCI-H522, in the experiment on NCI/ADR-RES, in the experiment with OVCAR-8, with PC-3 and with SF-268 was > 100 µM (inactive) in each case. The GI50 in the experiment with SK-MEL-28, in the experiment on SK-MEL-5, with SNB-19, with SNB-75, in the experiment with U-251 and with UACC-62 was > 100 µM (inactive) each time. In the experiment with UO-31, the GI50 was > 100 µM (inactive).

In the case of `CCC1=CCC(P(=O)(c2ccccc2)c2ccccc2)CC1C` (centres undefined), the GI50 in the experiment with 786-0 is 39 µM (inactive); with KM12, 35.1 µM (inactive); in the experiment with LOX IMVI, 44.3 µM (inactive); in the experiment with NCI-H23 it was 39.7 µM (inactive); in the experiment with NCI-H522, 20.7 µM (inactive); with OVCAR-8, 39.1 µM (inactive). Also, the GI50 is 35.2 µM (inactive) in the experiment on SF-268; 37.8 µM (inactive) in the experiment on SK-MEL-28; 28 µM (inactive) with SK-MEL-5; 27.5 µM (inactive) in the experiment with SNB-19; 18.5 µM (inactive) with SNB-75; 46.1 µM (inactive) in the experiment on U-251. For the same compound, the GI50 with UACC-62 is 33.3 µM (inactive); with UO-31 it was 21.7 µM (inactive).

`C[C@H]1C=C2C(=O)O[C@H]3CC[C@@H](C1)[C@@]23O`: the GI50 in the experiment with 786-0 was 3.28 µM (inactive); in the experiment with KM12, 2.92 µM (inactive); in the experiment on LOX IMVI it was 2.55 µM (inactive); in the experiment with NCI-H23, 2.8 µM (inactive); with NCI-H522, 2.51 µM (inactive); in the experiment with OVCAR-8 it was 3.39 µM (inactive). The GI50 is 3.13 µM (inactive) in the experiment on SF-268; 4.07 µM (inactive) in the experiment on SK-MEL-28; 4.13 µM (inactive) in the experiment with SK-MEL-5; 16.3 µM (inactive) in the experiment with SNB-19; 5.87 µM (inactive) with SNB-75; 6.44 µM (inactive) in the experiment with U-251. In addition, the figures for the GI50 with UACC-62 and in the experiment with UO-31 were 3.18 µM (inactive) and 18.2 µM (inactive), respectively.

On to `CCOC(=O)c1c(N2CCCC2)nsc1Nc1ccccc1`, for which the GI50 in the experiment on 786-0, in the experiment with DU-145, with KM12, in the experiment on LOX IMVI, in the experiment with MDA-N and with NCI-H23 was > 100 µM (inactive) throughout. Also, the GI50 in the experiment with NCI/ADR-RES, with OVCAR-8, in the experiment with PC-3, with SF-268, with SK-MEL-28 and in the experiment with SK-MEL-5 was > 100 µM (inactive) throughout. Moreover, the results for the GI50 with SNB-19, with SNB-75 and with UO-31 were > 100 µM (inactive), > 100 µM (inactive) and 27.5 µM (inactive), respectively.

On to `CCNC(=O)O/N=C1\CCC2[C@@H]3CC=C4C[C@@H](OC(=O)NCC)CC[C@]4(C)C3CC[C@]12C` (some centres undefined), for which the GI50 in the experiment with 786-0 is 2.91 µM (inactive); in the experiment on KM12 it was 2.9 µM (inactive); in the experiment on LOX IMVI it was 0.537 µM (active); in the experiment with NCI-H23, 1.08 µM (active); with NCI-H522, 1.57 µM (inactive); with OVCAR-8 it was 4.03 µM (inactive). Further, the GI50 is 2.94 µM (inactive) in the experiment on SF-268; 3.19 µM (inactive) in the experiment on SK-MEL-28; 0.807 µM (active) with SK-MEL-5; 0.495 µM (active) in the experiment on SNB-19; 2.69 µM (inactive) in the experiment on SNB-75; 2.09 µM (inactive) with U-251. Besides, the values for the 50% growth inhibitory concentration (GI50) in the experiment on UACC-62 and in the experiment on UO-31 were 0.951 µM (active) and 1.21 µM (inactive), respectively.

In the case of `COC(=O)[C@@H]1C[C@H](c2ccc(OC)c(OC)c2)OC1=O.COC(=O)[C@H]1C[C@H](c2ccc(OC)c(OC)c2)OC1=O`, the GI50 in the experiment on 786-0, in the experiment on KM12, in the experiment with LOX IMVI, with NCI-H23, with NCI-H522 and in the experiment with OVCAR-8 was > 100 µM (inactive) each time. Also, the GI50 in the experiment with SF-268, in the experiment on SK-MEL-28, in the experiment on SK-MEL-5, in the experiment with SNB-19, in the experiment on SNB-75 and with U-251 was > 100 µM (inactive) throughout. The GI50 in the experiment with UACC-62 and in the experiment on UO-31 was > 100 µM (inactive) throughout.

For `C=Nc1ccc([N+](=O)[O-])cc1`, the GI50 with 786-0 is > 100 µM (inactive); with KM12 it was > 100 µM (inactive); with LOX IMVI, 43.5 µM (inactive); in the experiment with NCI-H23, > 100 µM (inactive); in the experiment on NCI-H522, > 100 µM (inactive); in the experiment on OVCAR-8, > 100 µM (inactive). Moreover, the GI50 with SF-268, with SK-MEL-28, with SK-MEL-5, in the experiment with SNB-19, with SNB-75 and in the experiment on U-251 was > 100 µM (inactive) each time. The GI50 is > 84.5 µM (inactive) in the experiment on UACC-62 and > 84.9 µM (inactive) in the experiment on UO-31.

For the compound `S=c1sc2ccccc2n1CN1CCN(Cc2ccccc2)CC1`, the GI50 with 786-0, in the experiment with DU-145, in the experiment on KM12, in the experiment with LOX IMVI, in the experiment with MCF7 and with MDA-MB-435 was > 100 µM (inactive) in each case. The GI50 with NCI-H23, with NCI-H522, in the experiment with NCI/ADR-RES, with OVCAR-8, in the experiment on PC-3 and with SF-268 was > 100 µM (inactive) each time. Also, the GI50 in the experiment with SK-MEL-5, with SNB-19, in the experiment with SNB-75, in the experiment with U-251, with UACC-62 and in the experiment with UO-31 was > 100 µM (inactive) each time.

Regarding `N=C(N)N1CCC(N2CCOCC2)CC1`, the GI50 in the experiment on 786-0, in the experiment with DU-145, in the experiment with KM12, in the experiment with MCF7, with MDA-MB-435 and in the experiment on NCI-H23 was > 100 µM (inactive) in each case. Moreover, the GI50 with NCI/ADR-RES, in the experiment on OVCAR-8, with SF-268, in the experiment on SK-MEL-28, in the experiment on SK-MEL-5 and with SNB-19 was > 100 µM (inactive) throughout. Moreover, the GI50 in the experiment on SNB-75, in the experiment with U-251, with UACC-62 and in the experiment on UO-31 was > 100 µM (inactive) in each case.

Regarding `COC1=CC(=O)C2[C@H]3Cc4ccccc4[C@H]3C2(C)C1=O` (some centres undefined), the GI50 in the experiment on 786-0 was > 100 µM (inactive); with KM12 it was > 100 µM (inactive); in the experiment on LOX IMVI it was > 100 µM (inactive); with NCI-H23, > 100 µM (inactive); in the experiment on NCI-H522, 68.4 µM (inactive); in the experiment with OVCAR-8 it was > 100 µM (inactive). Further, the GI50 in the experiment on SF-268 is > 100 µM (inactive); in the experiment on SK-MEL-28, > 100 µM (inactive); in the experiment with SK-MEL-5, > 100 µM (inactive); in the experiment on SNB-19, > 100 µM (inactive); with SNB-75, 16.9 µM (inactive); in the experiment on U-251, > 100 µM (inactive). The GI50 in the experiment on UACC-62 is > 100 µM (inactive); in the experiment with UO-31, 34.7 µM (inactive).

As to `CCCCI(O)OS(=O)(=O)c1ccc(C)cc1`, the GI50 in the experiment on 786-0 is > 100 µM (inactive); in the experiment with DU-145, > 100 µM (inactive); in the experiment with KM12, 56.8 µM (inactive); in the experiment on LOX IMVI, 13.9 µM (inactive); in the experiment on MCF7, > 100 µM (inactive); in the experiment on MDA-MB-435, > 100 µM (inactive). Also, the GI50 with NCI-H23 is > 100 µM (inactive); in the experiment on NCI-H522, 22.5 µM (inactive); with NCI/ADR-RES it was 29.6 µM (inactive); with OVCAR-8 it was > 100 µM (inactive); in the experiment on PC-3, > 100 µM (inactive); with SF-268 it was > 100 µM (inactive). For the same compound, the GI50 with SK-MEL-28 was > 100 µM (inactive); in the experiment with SK-MEL-5, > 100 µM (inactive); with SNB-19 it was > 100 µM (inactive); in the experiment with SNB-75 it was 73.5 µM (inactive); in the experiment on U-251, > 100 µM (inactive); with UACC-62, 89.1 µM (inactive). In the experiment on UO-31, the GI50 was 23.9 µM (inactive).

`COc1cc(C(=O)N[C@H]2CCc3cc(OC)c(OC)c(OC)c3-c3ccc(SC)c(=O)cc32)cc(OC)c1OC`: the GI50 is 0.0223 µM (active) in the experiment on 786-0; 0.0025 µM (active) in the experiment with KM12; 0.00603 µM (active) with LOX IMVI; 0.00589 µM (active) in the experiment with NCI-H23; 0.00428 µM (active) in the experiment on NCI-H522; 0.00813 µM (active) in the experiment with OVCAR-8. Moreover, the concentration for 50% growth inhibition (GI50) in the experiment with SF-268 is 0.0218 µM (active); in the experiment on SK-MEL-28 it was 12.3 µM (inactive); with SK-MEL-5, 0.0132 µM (active); in the experiment on SNB-19, 0.00871 µM (active); in the experiment with SNB-75, 0.252 µM (active); in the experiment on U-251, 0.0116 µM (active). Besides, the 50% growth inhibitory concentration (GI50) in the experiment with UACC-62 was 0.0316 µM (active); in the experiment with UO-31 it was 0.019 µM (active).
